Test results from patent publication US9055743B2, “Alpha, beta-unsaturated imines” (BAYER INTELLECTUAL PROPERTY GMBH, priority 2010, dated 2015).

What was measured:
[1] = test system: caterpillars of the army worm (Spodoptera frugiperda); experiment: Spodoptera frugiperda test (SPODFR spray treatment); type: in vivo; conditions: 500 g/ha, spray, after 7 days
Procedure, shortened: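 Maize leaf discs sprayed with compound formulated in acetone/dimethylformamide plus alkylaryl polyglycol ether emulsifier and diluted in water, then infested with Spodoptera frugiperda caterpillars once dry. Mortality scored after 7 days as % activity, where 100% means all caterpillars killed.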

[2] = test system: Anopheles funestus strain FUMOZ-R; type: in vivo; conditions: 100 mg/m^2, two hours after contact, exposition 30 minutes
Procedure: Anopheles Test (ANPHFU Surface Treatment) Solvent: Acetone
(§1) To produce a suitable preparation of active compound, the active compound is dissolved in acetone (2 mg/ml). The active compound preparation is pipetted onto a glazed tile and, after drying, adult mosquitoes of the species Anopheles funestus strain FUMOZ-R (Hunt et al., Med Vet Entomol. 2005 September; 19(3):271-5) are placed onto the treated tile. The exposition time is 30 minutes.
(§2) Two hours after contact to the treated surface, the knock-down proportion of the test animals in % is determined.
(§3) 24 hours after contact to the treated surface, the mortality in % is determined. Here, 100% means that all mosquitoes have been killed; 0% means that none of the mosquitoes has been killed.

[3] = test system: green peach aphid (Myzus persicae); experiment: Myzus test (MYZUPE spray treatment); type: in vivo; conditions: 500 g/ha, spray, after 6 days
Procedure, shortened: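 Chinese cabbage leaf discs infested with all aphid stages were sprayed with compound in acetone/DMF with emulsifier, diluted in emulsifier-containing water. Mortality in % assessed after 6 days (100% = all aphids killed).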

Aedes aegypti = experiment: Aedes test (AEDSAE surface treatment); type: in vivo; conditions: 100 mg/m^2, two hours after contact, exposition 30 minutes
Procedure, shortened: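 Compound dissolved in acetone (2 mg/ml) and dried onto a glazed tile; adult mosquitoes exposed for 30 minutes. Knock-down % scored at 2 hours and mortality % at 24 hours after contact (100% = all killed).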

[4] = test system: larvae of the mustard beetle (Phaedon cochleariae); experiment: Phaedon test (PHAECO spray treatment); type: in vivo; conditions: 500 g/ha, spray, after 7 days
Procedure, shortened: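 Chinese cabbage leaf discs sprayed with compound formulated in acetone/dimethylformamide with alkylaryl polyglycol ether emulsifier, diluted in emulsifier-containing water to the desired concentration. After drying, discs were populated with mustard beetle larvae.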

[5] = test system: Anopheles gambiae (homocygus kdr); experiment: Anopheles test (ANPHGB surface treatment); type: in vivo; conditions: 100 mg/m^2, two hours after contact, exposition 30 minutes
Procedure, shortened: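 Compound dissolved in acetone at 2 mg/ml, pipetted onto glazed tile and dried; adult kdr-homozygous mosquitoes exposed on the tile for 30 min. Knock-down (%) read 2 h and mortality (%) 24 h after contact.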

[6] = logP determination by HPLC on reversed-phase columns (C18), LC-MS neutral; type: physicochemical; conditions: pH 7.8, HPLC on C18, calibration with alkan-2-ones
[7] = test system: greenhouse red spider mite (Tetranychus urticae); experiment: Tetranychus test; OP-resistant (TETRUR spray treatment); type: in vivo; conditions: 500 g/ha, spray, after 6 days
Procedure, shortened: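 Bean leaf discs infested with all stages of OP-resistant Tetranychus urticae were sprayed with compound in acetone/DMF with alkylaryl polyglycol ether emulsifier, diluted in emulsifier-water. Mortality was scored after 6 days: 100% means all mites killed, 0% none.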

[8] = test system: cat fleas (Ctenocephalides felis, fully sensitive laboratory strain); experiment: Contact test against fleas in-vitro (CTECFE contact); type: in vivo; conditions: 500 g/ha, after 48 h
Procedure, shortened: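 Test tubes coated from acetone solutions by rotation, top concentration 500 g/ha (500 μg/dm^2) on tube surface, serial 1:5 dilutions. 10-20 CO2-anesthetized adult fleas held at room temperature for 24 and 48 h. Activity scored versus acetone control: knock-down or death of all fleas = 100%.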

Boophilus microplus = Boophilus microplus test (BOOPMI injection); type: in vivo; conditions: 20 μg/animal, injection into the abdomen, after 7 days
Procedure, shortened: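 Ticks injected in the abdomen with compound in DMSO, then held in a climatized room. Effect scored after 7 days as % reduction in fertile egg laying, 100% meaning no fertile eggs.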

Culex quinquefasciatus = experiment: whole plant or invertebrate; type: in vivo; conditions: 100 mg/m^2, two hours after contact, exposition 30 minutes
Procedure: Culex Test (CULXFA Surface Treatment) Solvent: Acetone
as §1, with “Culex quinquefasciatus” for “Anopheles funestus strain FUMOZ-R (Hunt et al., Med Vet Entomol. 2005 September; 19(3):271-5)”
as §2, §3

Ctenocephalides felis = Ctenocephalides felis oral test (CTECFE); type: in vivo; conditions: 100 ppm in citrated cattle blood, after two days
Procedure, shortened: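 About 20 unfed adult C. felis fed through a parafilm membrane on citrated cattle blood containing compound (DMSO stock diluted to the desired concentration). Kill (%) determined after two days; 100% = all fleas dead, 0% = none dead.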

Lucilia cuprina larvae = experiment: Lucilia cuprina test (LUCICU); type: in vivo; conditions: 100 ppm, after 2 days
Procedure, shortened: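 Horsemeat treated with compound (DMSO concentrate diluted in water) was populated with about 20 L. cuprina larvae. Percent kill was scored after 2 days, from 100% (all larvae dead) to 0% (none dead).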

| SMILES | knock-down activity (Aedes aegypti) | activity (beetle larvae killed) [4] | knock-down activity [5] | logP [6] | also measured |
| --- | --- | --- | --- | --- | --- |
| Cc1ccc(N=C2C(=CSc3ccccc3)C3CCC2C3)cc1 (centres unmarked) [Example 1-100] | 100% | 100% | 100% | – | activity (caterpillars killed) [1]: 100%; knock-down activity [2]: 100%; activity (aphids killed) [3]: 100% |
| CC1C(=CSc2ccccc2)C(=Nc2ccc(Cl)cc2)c2ccccc21 (centres unmarked) [Example 1-11] | – | – | – | LC-MS (neutral)*: logP = 6.38, (M + H)^+ = 376 | – |
| Cc1ccc(N=C2C(=CSc3ccc(F)cc3)C3CCC2C3)cc1 (centres unmarked) [Example 1-40] | 100% | 100% | 100% | – | knock-down activity [2]: 100%; activity (spider mites killed) [7]: 100% |
| Cc1ccc(N=C2C(=CSc3ccc(F)cc3)COc3ccccc32)cc1 [Example 1-36] | 100% | 100% | 100% | – | activity (caterpillars killed) [1]: 100%; activity (aphids killed) [3]: 100%; activity against cat fleas [8]: 100%; activity (spider mites killed) [7]: 100%; activity (100% = none of the ticks has laid any fertile eggs) (Boophilus microplus): 100%; knock-down activity (Culex quinquefasciatus): 100%; activity (kill in %) (Ctenocephalides felis): 90%; activity (kill in %) (Lucilia cuprina larvae): 100% |
| Cc1ccc(N=C2CCCCCC2=CSc2ccccc2)cc1 [Example 1-38] | 100% | – | 100% | LC-MS (neutral)*: logP = 6.20, (M + H)^+ = 322 | activity against cat fleas [8]: 100% |
| Cc1ccc(N=C2C(=CSc3ccc(F)cc3)CCCC2=Cc2ccccc2)cc1 [Example 1-56] | – | – | – | LC-MS (neutral)*: logP = 7.01, (M + H)^+ = 414. | – |
| CC(=O)Nc1ccc2c(c1)CCC(=CSc1ccc(F)cc1)C2=Nc1ccc(C)cc1 [Example 1-48] | – | – | – | LC-MS (neutral)*: logP = 4.64, (M + H)^+ = 431. | – |
